According to US6428820B2, “Extracts of Hypericum perforatum and formulations containing them” (Indena S.p.A., priority 1999, dated 2002):
Values after ≈ are worked out from the molar mass of the structure shown.

Experiments:
[1] = test system: dopamine (DA) uptake; conditions: inhibition of 3H DA uptake
[2] = test system: serotonin (5-HT) uptake; experiment: Inhibition of 3H 5-HT (serotonin) uptake; type: biochemical; conditions: inhibition of 3H 5-HT uptake

| Compound | IC50 3H DA uptake [1] | IC50 3H-5 HT uptake [2] |
| --- | --- | --- |
| Cc1cc(O)c2c(=O)c3c(O)cc(O)c4c5c(O)cc(O)c6c(=O)c7c(O)cc(CO)c8c1c2c(c34)c(c65)c78 [Pseudo-hypericin] | 1.40 ± 0.13 µg/mL (≈ 2.69 µM) | 27.0 ± 1.1020 µg/mL (≈ 51.9 µM) |
| Hyperforin | 1.54 ± 0.23 µg/mL | 4.75 ± 0.79 µg/mL |
